Reference: patent US8722849B2, “Polypeptides” (Novo Nordisk A/S, priority 2011, dated 2014)
pEC50: −log10 of the molar value. Values after ≈ are worked out from the molar mass of the structure shown. Like-named read-outs stand apart in the source and are kept apart here. Starred links: 1 amine or outer side, 2 acyl side, 3 side chain; linkers in the order of their positions; H or OH if unused. Positions of bridges follow the written chain, without caps; N, C: chain ends. Non-standard residues stand in square brackets, D forms with d. Residues, ends and D or L forms follow the SMILES beside them. *: point of attachment. C20 diacid = O=C(O)CCCCCCCCCCCCCCCCCCC(=O)*; γGlu = O=C(O)[C@H](CCC(=O)[*:2])N[*:1]; AEEA = NCCOCCOCC(=O)O

Columns and labels:
[1] = Assay (IV) determination of solubility; assay type: physicochemical
Outline: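 Polypeptide in water (~500 nmol/ml) mixed 1:1 with 100 mM glycylglycine (pH 3.0–5.0) or bistrispropane (pH 6.0–8.0) buffers. Held 18 hours at room temperature, then centrifuged. Polypeptide remaining in solution quantified by HPLC.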

[2] = target: T1, rat calcitonin (a) receptor (Rattus norvegicus, UniProt P32214); test: Assay (II)b functional cAMP FlashPlate assay, rat calcitonin receptor; assay type: cell-based; settings: Table 11; read-out: CTa receptor rat EC50
T1 construct: expressed in transfected cells; host or cells: BHK tk'ts 13
T1 sequence (P32214 25-479 isoform P32214-2 limits assumed): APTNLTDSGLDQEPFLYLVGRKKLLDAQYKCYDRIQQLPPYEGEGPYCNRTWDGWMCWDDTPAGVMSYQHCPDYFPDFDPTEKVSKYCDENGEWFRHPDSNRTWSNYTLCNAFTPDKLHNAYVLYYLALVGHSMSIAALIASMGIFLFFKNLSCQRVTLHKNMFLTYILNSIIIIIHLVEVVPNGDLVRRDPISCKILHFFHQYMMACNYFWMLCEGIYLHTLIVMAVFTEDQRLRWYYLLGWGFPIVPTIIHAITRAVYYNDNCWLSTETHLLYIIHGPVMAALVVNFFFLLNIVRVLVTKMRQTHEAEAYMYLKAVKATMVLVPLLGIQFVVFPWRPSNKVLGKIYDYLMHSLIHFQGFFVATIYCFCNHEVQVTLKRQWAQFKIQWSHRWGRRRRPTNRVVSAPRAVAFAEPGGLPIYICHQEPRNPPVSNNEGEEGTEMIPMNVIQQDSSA
Description: (§1) Assay (II)b—Rat Calcitonin and Rat Amylin Receptor Assays
(§2) Activation of calcitonin and amylin (coexpression of calcitonin receptor and receptor activity modifying proteins (RAMP)) receptors lead to increased intracellular concentrations of cAMP. In order to quantify the cAMP levels in transiently transfected cells the Adenylyl Cyclase Activation FlashPlate® Assay from […] was used. The basic principle of the FlashPlate® Assay is a competition between radioactive and non-radioactive cAMP generated by the cells for a fixed number of binding sites.
(§3) Construction of rat calcitonin(a)—and rat amylin 3(a)-receptor cells.
(§4) BHK tk'ts 13 cells were transiently transfected with either rat calcitonin (a) receptor or amylin 3 (a) receptor (rat calcitonin(a) receptor+ rat RAMP3) using FuGENE® 6 (ROCHE), according to the manufacturers recommendations.
(§5) 24 hours after transient transfection the cells (rat calcitonin(a)—or rat amylin 3(a)—receptor cells) were added (100.000 cells/well) to the 96 well FlashPlates® with samples or standard in FlashPlate stimulation buffer with IBMX and incubated for 30 min. Detection mix was created according to manufacturers protocol and scintillation measured after 3 h of incubation on TopCounter™ (Packard).

[3] = target: T2, human calcitonin receptor (Homo sapiens, UniProt P30988); test: Assay (II)a functional CRE-luciferase assay, human calcitonin receptor; assay type: cell-based
T2 construct: expressed in transfected cells; host or cells: BHK570
T2 sequence (P30988 25-474): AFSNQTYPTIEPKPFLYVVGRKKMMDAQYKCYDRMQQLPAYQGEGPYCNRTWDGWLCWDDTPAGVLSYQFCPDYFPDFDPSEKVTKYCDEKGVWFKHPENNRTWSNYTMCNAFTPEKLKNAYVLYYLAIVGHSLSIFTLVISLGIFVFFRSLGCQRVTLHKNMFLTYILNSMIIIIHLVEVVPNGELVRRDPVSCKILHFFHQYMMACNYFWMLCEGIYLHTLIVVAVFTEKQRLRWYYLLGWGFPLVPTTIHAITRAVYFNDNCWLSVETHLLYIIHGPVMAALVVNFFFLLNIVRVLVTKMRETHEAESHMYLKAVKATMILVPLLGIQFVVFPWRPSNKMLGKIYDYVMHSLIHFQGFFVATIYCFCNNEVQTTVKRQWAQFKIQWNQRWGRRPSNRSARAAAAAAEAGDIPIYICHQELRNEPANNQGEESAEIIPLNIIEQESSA

[4] = target: T3, rat amylin 3(a) receptor (rat calcitonin(a) receptor + rat RAMP3) (Rattus norvegicus, UniProt P32214+Q9JJ73); test: Assay (II)b functional cAMP FlashPlate assay, rat amylin receptor; assay type: cell-based; settings: Table 11
T3 construct: expressed in transfected cells; host or cells: BHK tk'ts 13
T3 sequence (P32214 25-479 isoform P32214-2 limits assumed): T1 sequence (P32214 25-479 isoform P32214-2 limits assumed)
T3 sequence (Q9JJ73 23-147 partner): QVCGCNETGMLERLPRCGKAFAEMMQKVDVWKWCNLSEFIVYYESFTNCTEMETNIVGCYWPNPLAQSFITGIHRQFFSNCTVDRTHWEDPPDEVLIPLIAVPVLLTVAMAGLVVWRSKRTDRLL
Description: as §1, §2, §3, §4, §5

[5] = target: T4, human amylin receptor (amylin 3(a) receptor: human calcitonin receptor + RAMP-3) (Homo sapiens, UniProt O60896+P30988); test: Assay (II)a functional CRE-luciferase assay, human amylin receptor; assay type: cell-based
T4 construct: expressed in transfected cells; host or cells: BHK570
T4 sequence (P30988 25-474): T2 sequence (P30988 25-474)
T4 sequence (O60896 24-148 partner): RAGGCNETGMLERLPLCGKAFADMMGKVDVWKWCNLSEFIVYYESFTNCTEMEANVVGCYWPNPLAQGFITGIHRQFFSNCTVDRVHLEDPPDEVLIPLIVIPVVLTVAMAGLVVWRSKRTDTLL

[6] = Table 7, human calcitonin (CTa) receptor
[7] = Table 2, BHK amylin 3(a)-receptor/CRE-luc cells

Compound: CC[C@H](C)[C@H](NC(=O)[C@@H]1CCCN1C(=O)CNC(=O)[C@H](Cc1ccccc1)NC(=O)[C@H](CC(N)=O)NC(=O)[C@H](C)NC(=O)[C@H](CO)NC(=O)[C@H](CO)NC(=O)[C@H](CCCNC(=N)N)NC(=O)[C@H](Cc1cnc[nH]1)NC(=O)[C@H](CC(C)C)NC(=O)[C@H](Cc1ccccc1)NC(=O)[C@H](CCC(=O)O)NC(=O)[C@H](C)NC(=O)[C@H](CC(C)C)NC(=O)[C@H](CCCNC(=N)N)NC(=O)[C@H](CCC(N)=O)NC(=O)[C@@H](NC(=O)[C@H](C)NC(=O)[C@@H]1CSSC[C@H](NC(=O)[C@H](CCCCN)NC(=O)[C@@H](CCCNC(=N)N)NC(=O)[C@@H](CCCNC(=N)N)NC(=O)COCCOCCNC(=O)COCCOCCNC(=O)CC[C@H](NC(=O)CCCCCCCCCCCCCCCCCCC(=O)O)C(=O)O)C(=O)N[C@@H](CC(N)=O)C(=O)N[C@@H]([C@@H](C)O)C(=O)N[C@@H](C)C(=O)N[C@@H]([C@@H](C)O)C(=O)N1)[C@@H](C)O)C(=O)N[C@@H](CC(C)C)C(=O)N1CCC[C@H]1C(=O)N1CCC[C@H]1C(=O)N[C@H](C(=O)N[C@@H](CC(N)=O)C(=O)N[C@H](C(=O)NCC(=O)N[C@@H](CO)C(=O)N[C@@H](CO)C(=O)N[C@H](C(=O)N[C@@H](Cc1ccc(O)cc1)C(N)=O)[C@@H](C)O)C(C)C)[C@@H](C)O [Example 38, N-alpha-[2-(2-{2-[2-(2-{2-[(S)-4-Carboxy-4-(19-carboxyheptadecanoylamino)butyrylamino]ethoxy}ethoxy)acetylamino]ethoxy}ethoxy)acetyl]-D-Arg-D-Arg-[Glu14,His17,Arg18,Ala21,Ser35]-pramlintide] ({C20 diacid-γGlu-AEEA-AEEA}-[dR][dR]KCNTATCATQRLAEFLHRSSANFGPILPPTNVGSSTY-NH2; disulfide 4-9)
- solubility ([1]; pH 3, pH 3.0, read-out: Solubility pH 3.0): > 200 µM
- solubility ([1]; pH 4, pH 4.0, 18 hours at room temperature, Table 2, read-out: Solubility pH 4.0): > 200 µM
- solubility ([1]; pH 4, pH 4.0, read-out: Solubility pH 4.0): > 200 µM
- solubility ([1]; pH 5, pH 5.0, read-out: Solubility pH 5.0): > 200 µM
- solubility ([1]; pH 6, pH 6.0, read-out: Solubility pH 6.0): > 200 µM
- solubility ([1]; pH 6.5, pH 6.5, read-out: Solubility pH 6.5): > 200 µM
- solubility ([1]; pH 7, pH 7.0, 18 hours at room temperature, Table 3, read-out: Solubility pH 7.0): > 200 µM
- solubility ([1]; pH 7, pH 7.0, Table 8, read-out: Solubility pH 7.0): > 200 µM
- solubility ([1]; pH 7, pH 7.0, Table 9, read-out: Solubility pH 7.0): > 200 µM
- solubility ([1]; pH 7, pH 7.0, read-out: Solubility pH 7.0): > 200 µM
- solubility ([1]; pH 7.5, pH 7.5, Table 9, read-out: Solubility pH 7.5): > 200 µM
- solubility ([1]; pH 7.5, pH 7.5, read-out: Solubility pH 7.5): > 200 µM
- solubility ([1]; pH 8, pH 8.0, read-out: Solubility pH 8.0): > 200 µM
- pEC50 [2]: 8.35
- pEC50 [3, 6]: 8.95
- pEC50 ([3]; Table 11, read-out: CTa receptor human EC50): 8.95
- pEC50 [4]: 9.63
- pEC50 [5, 7]: 9.83
- pEC50 ([5]; Table 3, BHK amylin 3(a)-receptor/CRE-luc cells): 9.83
- pEC50 ([5]; Table 4): 9.83
- pEC50 ([5]; Table 5): 9.83
- pEC50 ([5]; Table 6, human amylin receptor): 9.83
- pEC50 ([5]; Table 7, human amylin receptor): 9.83
- pEC50 ([5]; Table 8): 9.83
- pEC50 ([5]; Table 9): 9.83
- pEC50 ([5]; Table 11): 9.83

Compound: CC(C)C[C@H](NC(=O)[C@H](CCCNC(=N)N)NC(=O)[C@H](CCC(N)=O)NC(=O)[C@@H](NC(=O)[C@H](C)NC(=O)[C@@H]1CSSC[C@H](NC(=O)[C@H](Cc2c[nH]cn2)NC(=O)[C@H](Cc2c[nH]cn2)NC(=O)[C@H](Cc2c[nH]cn2)NC(=O)CC[C@H](NC(=O)CCCCCCCCCCCCCCCCCCC(=O)O)C(=O)O)C(=O)N[C@@H](CC(N)=O)C(=O)N[C@@H]([C@@H](C)O)C(=O)N[C@@H](C)C(=O)N[C@@H]([C@@H](C)O)C(=O)N1)[C@@H](C)O)C(=O)N[C@@H](C)C(=O)N[C@@H](CCC(=O)O)C(=O)N[C@@H](Cc1ccccc1)C(=O)N[C@@H](CC(C)C)C(=O)N[C@@H](Cc1c[nH]cn1)C(=O)N[C@@H](Cc1c[nH]cn1)C(=O)N[C@@H](CO)C(=O)N[C@@H](CO)C(=O)N[C@@H](CC(N)=O)C(=O)N[C@@H](CC(N)=O)C(=O)N[C@@H](Cc1ccccc1)C(=O)NCC(=O)N[C@@H](C)C(=O)N1CCC[C@H]1C(=O)N[C@@H](CC(C)C)C(=O)N[C@@H](CO)C(=O)N[C@@H](CO)C(=O)N[C@H](C(=O)N[C@@H](CC(N)=O)C(=O)N[C@H](C(=O)NCC(=O)N[C@@H](CO)C(=O)N[C@@H](CC(N)=O)C(=O)N[C@H](C(=O)N[C@@H](Cc1ccc(O)cc1)C(N)=O)[C@@H](C)O)C(C)C)[C@@H](C)O [Example 19, N-alpha-[(S)-4-Carboxy-4-(19-carboxynonadecanoylamino)butyryl]-His-His-[His1,Glu14,His17,Ala25,Pro26,Ser28,Ser29]-pramlintide] ({C20 diacid-γGlu}-HHHCNTATCATQRLAEFLHHSSNNFGAPLSSTNVGSNTY-NH2; disulfide 4-9 (inferred); C-terminus assumed)
- solubility at 18 h ([1]; bistrispropane buffer, pH 6, pH 6.0, read-out: Solubility pH 6.0): 175 µM (≈ 819 µg/mL)
- solubility at 18 h ([1]; bistrispropane buffer, pH 6.5, pH 6.5, read-out: Solubility pH 6.5): 35 µM (≈ 164 µg/mL)
- solubility at 18 h ([1]; bistrispropane buffer, pH 7, pH 7.0, read-out: Solubility pH 7.0): 6 µM (≈ 28.1 µg/mL)
- solubility at 18 h ([1]; bistrispropane buffer, pH 7.5, pH 7.5, read-out: Solubility pH 7.5): 61 µM (≈ 285 µg/mL)
- solubility at 18 h ([1]; bistrispropane buffer, pH 8, pH 8.0, read-out: Solubility pH 8.0): 158 µM (≈ 739 µg/mL)
- solubility at 18 h ([1]; glycylglycine buffer, pH 3, pH 3.0, read-out: Solubility pH 3.0): > 200 µM
- solubility at 18 h ([1]; glycylglycine buffer, pH 4, pH 4.0, 18 hours at room temperature, Table 2, read-out: Solubility pH 4.0): > 200 µM
- solubility at 18 h ([1]; glycylglycine buffer, pH 4, pH 4.0, read-out: Solubility pH 4.0): > 200 µM
- solubility at 18 h ([1]; glycylglycine buffer, pH 5, pH 5.0, read-out: Solubility pH 5.0): 155 µM (≈ 725 µg/mL)
- pEC50 [2]: 9.08
- pEC50 [3, 6]: 9.51
- pEC50 [4]: 9.88
- pEC50 [5, 7]: 9.98
